Test results as given in US20230271950A1, “ANTIBACTERIAL PICOLINAMIDE COMPOUNDS” (University of Notre Dame Du Lac, priority 2020, published 2023).
In brackets after ≈: the same amount, converted by molar mass. Like-named read-outs stand apart in the source and are kept apart here.

What was measured:
[1] = Pharmacokinetics study in mice (plasma and feces levels); type: in vivo; settings: for concentration at 8 h: female, CD-1, mouse
Experimental: Pharmacokinetics (PK) study. Mice (n=2 per time point) were given a single 100 μL solution of 5 mg/mL of compound 1 (equivalent to 20 mg/kg). Terminal blood was collected in heparinized syringes by cardiac puncture at 30 min, 1 h, 2 h, 4 h, and 8 h. The two mice at the 8-h time point were place in metabolism cages for collection of feces. Compound 1 was dissolved in 5% DMSO/95% water with 96 mg/mL of sodium bicarbonate. Blood was centrifuged at 1,000 g for 20 min at 4° C. and plasma was separated and stored at −80° C. until analysis. A 45-μL aliquot of plasma was mixed with 5 μL of H2O:ACN (1:1) and was quenched with 100 μL of acetonitrile containing 20 μM of internal standard (compound 10). The sample was centrifuged at 21,000 g for 15 min at 4° C. to precipitate the proteins, and the resulting supernatant was analyzed by UPLC-TQD detector using multiple-reaction monitoring (MRM). Calibration curves for compound 1 were prepared from 0 to 102.4 μM using a control mouse plasma (50 μL). Peak area ratios relative to internal standard and linear regression was used from which the concentrations in plasma samples from the PK study were determined.
An average of 250 mg of feces were collected at 8 h from two mice, and subsequently homogenized with 6 times the feces volume (1,500 μL of H2O:ACN 1:1) using a Bullet Blender (Next Advance, Inc., Troy, N.Y.). The homogenate was centrifuged at 21,000 g for 5 min. The fecal supernatant (72 μL) was mixed with 8 μL of a solution of H2O:ACN (1:1) and 40 μL of 50 μM of the internal standard in ACN with 0.5% formic acid. A calibration curve was prepared from 0 μM to 102.4 μM in control mouse feces. Plasma and feces were analyzed on a Waters TQD tandem quadrupole detector (Waters Corporation, Milford, Mass.) using a YMC-Triart C18 100 mm×2.0 mm column (3μ, YMC Co. Ltd, Kyoto, Japan). The chromatographic conditions consisted of elution with 30% H2O/70% ACN containing 0.10% formic acid for 5 min at a flow rate 0.5 mL/min. Mass Spectrometry acquisition was performed in the positive electrospray ionization mode with MRM. The capillary, cone, extractor and RF lens voltages were set at 2.8 kV, 40 V, 1 V and 0.1 V, respectively. The desolvation and cone gas (nitrogen) flow rates were 650 L/h and 50 L/h, respectively. The source temperature was set at 150° C. The desolvation temperature was 350° C. The MRM transitions used were 459.4→254.0 for compound 1, and 294.8→133.5 for the internal standard.
Animals. Female C57BL/6 mice weighing 18-20 g and 6-8 weeks of age were used for the efficacy study (Jackson, Bar Harbor, Me.). Female CD-1 mice (24-31 g and 7-8 weeks of age) were used for the PK study. They were housed in groups of five mice in sterile polycarbonate shoeboxes with bedding consisting of ¼-inch corncob (The Andersons Ind., Maumee, Ohio) and Alpha-Dri (Shepherd Specialty Papers, Inc., Richland, Mich.). Mice were maintained on a 12-h light/dark cycle at 72° F. and were given Teklad 2918 irradiated extruded rodent diet and water ad libitum. All procedures were performed in accordance with and approved by the University of Notre Dame Institutional Animal Care and Use Committee.
Pharmacokinetics (PK) Studies. Compounds 4, 87, 107, and 108 were dissolved in 10% DMSO, 25% propylene glycol, 15% Tween 80 and 50% water at concentrations of 5 mg/mL or 10 mg/mL. Compound 116 was dissolved in 5% DMSO, 95% water with 96 mg/mL of sodium bicarbonate. Mice (n=2 per time point) were given a single 100 μL oral gavage of the test compound (equivalent to either 10 mg/kg and/or 20 mg/kg), and terminal blood was collected in heparinized syringes by cardiac puncture at 30 min, 1 h, 2 h, 4 h, and 8 h. An average of 250 mg of feces were collected after 8 h from two mice housed in metabolism cages in each group for further analysis. Blood was centrifuged at 1000 g for 2 min at 4° C. to obtain plasma. Plasma and fecal samples were stored at −80° C. until analysis. […]

[2] = tested on: stationary-phase C. difficile; test: Time-kill assay, stationary-phase C. difficile; type: cell-based, Clostridioides difficile; settings: 8×, 16×, and 32×MIC
Experimental: Time-kill assay. […] A control tube without antibiotic was also included. At intervals of 4, 8, and 24 h, 100-μL aliquots of the cultures were plated onto pre-reduced brain heart infusion broth agar media for colony counts. […] The experiment was done in triplicate.

[3] = tested on: C. difficile strain ATCC43255; test: Serial passage for development of resistance; type: cell-based, Clostridioides difficile; settings: for increase of MIC on serial passage: C. difficile ATCC43255, 25 passages; for MIC: Clostridioides difficile
[4] = tested on: C. difficile ATCC43255; test: Scanning-electron microscopy of C. difficile vegetative cells; type: cell-based, Clostridioides difficile; settings: compound 1 at 4× to 32×MIC; VAN at 4×MIC
Experimental: FIG. 2. Mechanism of action of compound 1. (A) Macromolecular biosynthesis assays: Compound 1 was incubated with C. difficile ATCC43255 at 0.5×MIC. […] The incubation time was 60 min for DNA, 120 min for peptidoglycan synthesis and RNA, and 180 min for protein synthesis. (B-G) Imaging of C. difficile […] vegetative cells (logarithmic growth) by scanning electron microscopy.
Scanning-electron microscopy. […] Following incubation, the cells were washed with PBS (3×) and applied onto poly-1-lysine (Santa Cruz Biotechnology, Dallas, Tex.) coated microglass coverslips (Electron Microscopy Sciences, Hatfield, Pa.) and incubated for 15 min. The cells were fixed for 1 h with 2% glutaraldehyde, followed by a wash (3×) with sodium cacodylate buffer at pH 7.4. The samples were fixed with 1% osmium tetroxide for 1 h and rinsed (3×) in the buffer. The samples were then put through a graded ethanol series for dehydration, followed by critical point drying. The samples were then mounted on SEM stubs and sputter-coated with iridium. Microscopy and imaging were performed on a Magellan 400 XHR instrument (FEI, Hillsboro, Oreg.).

[5] = tested on: ESKAPE panel; test: MIC against the ESKAPE panel; type: cell-based; settings: E. faecium, S. aureus, K. pneumoniae, A. baumannii, P. aeruginosa, Enterobacter species
Experimental: Minimum-inhibitory Concentration Determination. MICs for C. difficile strains and other gut bacteria were determined with the broth microdilution method as previously described (J. Antimicrob. Chemother. 2013, 68, 515). ESKAPE panel and MRSA MICs were determined as described in the Clinical & Laboratory Standards Institute guidelines.

[6] = tested on: CDI; settings: patients treated with the antibiotic; cited from earlier work
[7] = 20 mg/kg single oral administration
[8] = single oral gavage, dose 20 mg · kg^−1, feces collected after 8 h, read-out: Drug concentration in fecal samples (mg kg^−1 feces)

Row | SMILES | Conc. feces/MIC ([1]; dose 20 mg · kg^−1) | reduction of C. difficile stationary-phase growth [2] [log10] | increase of MIC on serial passage [3] [fold] | cell surface by scanning-electron microscopy [4] | concentration at 8 h [1, 8] [ng/g] | Recurrence of CDI [6] [%] | other results
1 | O=C(O)c1ccc2oc(NC(=O)c3cc(Oc4cccc(OC(F)(F)F)c4)ccn3)nc2c1 [Compound 1, Sodium 2-(4-(3-(trifluoromethoxy)phenoxy)picolinamido)benzo[d]oxazole-5-carboxylate] | 108 | 2 | 8 | bleb formation on the surface was evident |  |  | Concentrations in plasma [1, 7]: non-quantifiable; levels in feces higher than the MIC for C. difficile ATCC 43255 [1, 7]: > 100 fold; concentration at 8 h ([1]; 20 mg/kg single oral administration, feces collected at 8 h, read-out: levels in feces): 13000 ng/g; Drug concentration in fecal samples (mg kg^−1 feces) ([1]; single oral gavage, dose 20 mg · kg^−1, feces collected after 8 h): 13 mg/kg; MIC ([3]; ATCC43255, read-out: MIC after serial passage): 1 mg/L; MIC ([3]; ATCC43255, read-out: starting MIC in serial passage): 0.125 mg/L
2 | O=C(Nc1ncco1)c1ccnc(-c2ccc(Cl)c(Cl)c2)c1 [Compound 4, 2-(3,4-Dichlorophenyl)-N-(oxazol-2-yl)isonicotinamide] | 11 |  |  |  | 2800 |  | activity against the ESKAPE panel [5]: active only against the Gram-positive members of the panel
3 | O=C(Nc1ncco1)c1cc(-c2ccc(Cl)c(Cl)c2)ccn1 [Compound 87, 4-(3,4-Dichlorophenyl)-N-(oxazol-2-yl)picolinamide] |  |  |  |  |  |  | Conc. feces/MIC ([1]; dose 10 mg · kg^−1): 6.6; concentration at 8 h ([1]; single oral gavage, dose 10 mg · kg^−1, feces collected after 8 h, read-out: Drug concentration in fecal samples (mg kg^−1 feces)): 790 ng/g
4 | O=C(Nc1ncco1)c1cc(Oc2cccc(OC(F)(F)F)c2)ccn1 [Compound 108, N-(Oxazol-2-yl)-4-(3-(trifluoromethoxy)phenoxy)picolinamide] | 49 |  |  |  | 49000 |  | 
5 | CCc1c(Cl)c(O)c(Cl)c(O)c1C(=O)O[C@H]1[C@H](O)[C@H](OC)[C@H](OC/C2=C\C=C\C[C@H](O)/C(C)=C/[C@H](CC)[C@@H](O[C@@H]3OC(C)(C)[C@@H](OC(=O)C(C)C)[C@H](O)[C@@H]3O)/C(C)=C/C(C)=C/C[C@@H]([C@@H](C)O)OC2=O)O[C@@H]1C [FDX, fidaxomicin, reference compound] |  |  |  |  |  | 15 | 
6 | CN[C@H](CC(C)C)C(=O)N[C@H]1C(=O)N[C@@H](CC(N)=O)C(=O)N[C@H]2C(=O)N[C@H]3C(=O)N[C@H](C(=O)N[C@H](C(=O)O)c4cc(O)cc(O)c4-c4cc3ccc4O)[C@H](O)c3ccc(c(Cl)c3)Oc3cc2cc(c3O[C@@H]2O[C@H](CO)[C@@H](O)[C@H](O)[C@H]2O[C@H]2C[C@](C)(N)[C@H](O)[C@H](C)O2)Oc2ccc(cc2Cl)[C@H]1O [VAN, vancomycin, reference compound] |  | 1 | 8 | altered |  | 25 | MIC ([3]; C. difficile ATCC43255, sub-MIC concentrations, 25 passages, read-out: MIC after serial passage): 4 mg/L (≈ 2.76 µM)
